Assay [1] is described as follows: Stimulation of DNA triplet repeat slippage synthesis using p33-labeled (ATT)3 and unlabeled (AAT)5 template assessed as number of base pairs at 200 uM.
Assay [2] is described as follows: Binding affinity to ATT-bulge-DNA by surface plasmon resonance based assay. In general terms: In SPR one partner is held on a chip, and binding of the other changes the refractive index at the surface.
The nature of assay [3]: Stimulation of DNA triplet repeat slippage synthesis using p33-labeled (ATT)3 and unlabeled (AAT)5 template assessed as number of base pairs at 50 uM.
The nature of assay [4]: Stimulation of DNA triplet repeat slippage synthesis using p33-labeled (ATT)3 and unlabeled (AAT)5 template assessed as number of base pairs at 400 uM.
A short description of assay [5]: Binding affinity to double strand DNA by surface plasmon resonance based assay.
A short description of assay [6]: Binding affinity to hairpin DNA by surface plasmon resonance based assay.
Assay [7] is described as follows: Stimulation of DNA triplet repeat slippage synthesis using p33-labeled (ATT)3 and unlabeled (AAT)5 template assessed as number of base pairs at 100 uM.
A short description of assay [8]: Stimulation of DNA triplet repeat slippage synthesis using p33-labeled (ATT)3 and unlabeled (AAT)5 template at 100 uM in presence of doxorubicin.
Assay [9] is described as follows: Stimulation of DNA triplet repeat slippage synthesis using p33-labeled (ATT)3 and unlabeled (AAT)5 template assessed as number of base pairs.

Active and inactive are the calls of the source. The rule behind the calls is not given here.

`OC[C@H]1O[C@@H](OCCN2c3ccccc3Sc3ccccc32)[C@H](O)[C@@H](O)[C@@H]1O`: the Activity in assay [1] came out at 32; in assay [3], 18; in assay [4], 71; in assay [7] it was 20. Besides, the Ki (in general, a dissociation constant, usually derived from enzyme kinetics or from competition with a known ligand) in assay [2] was 41.5 µM. The Kd (as a rule, the concentration at which binding is half-saturated) in assay [5] stood at 170 µM; in assay [6] it was 140 µM. Besides, the outcome in [8] was inactive.

For `N[C@H]1[C@H](O[C@H]2C[C@H]3C(=O)c4cc5ccccc5cc4[C@H]3[C@@]23C(=O)CCc2ccccc23)O[C@H](CO)[C@@H](O)[C@@H]1O`, the outcome in [9] was Active.

Take `c1ccc2c(c1)Nc1ccccc1S2`: the outcome in assay [2] and in [9] was inactive.

The record behind these values is ChEMBL document CHEMBL1152156, “A bulge binding agent with novel wedge-shape topology for stimulation of DNA triplet repeat strand slippage synthesis” (Bioorg Med Chem Lett, 2008).
